Measurements: PubChem BioAssay (NCI)
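Growth conditions: 96-well plates. Treatment: test compound, 48 hours, 5 concentrations. Analysis: linear interpolation between bracketing concentrations; unreached endpoints set to highest concentration. TGI marks complete inhibition of growth.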

Tests used:
Assay in all cases: NCI tumour cell line growth inhibition, 48 h
A549 NSCLC = system: A549 NSCLC
HCC-2998 colon = system: HCC-2998 colon
HCT-15 colon = system: HCT-15 colon
HOP-62 NSCLC = system: HOP-62 NSCLC
IGROV1 ovarian = system: IGROV1 ovarian
KM12 colon = system: KM12 colon
MALME-3M melanoma = system: MALME-3M melanoma
MCF7 breast = system: MCF7 breast
NCI-H226 lung = system: NCI-H226 lung
OVCAR-5 ovarian = system: OVCAR-5 ovarian
RPMI-8226 leukemia = system: RPMI-8226 leukemia
SF-268 CNS = system: SF-268 CNS
SK-MEL-2 melanoma = system: SK-MEL-2 melanoma
SK-MEL-28 melanoma = system: SK-MEL-28 melanoma
SNB-19 CNS = system: SNB-19 CNS
TK-10 renal = system: TK-10 renal
U251 CNS = system: U251 CNS
UACC-257 melanoma = system: UACC-257 melanoma
UO-31 renal = system: UO-31 renal
OVCAR-4 ovarian = system: OVCAR-4 ovarian

Row | Compound | TGI (A549 NSCLC) [µM] | TGI (HCC-2998 colon) [µM] | TGI (HCT-15 colon) [µM] | TGI (HOP-62 NSCLC) [µM] | TGI (IGROV1 ovarian) [µM] | TGI (KM12 colon) [µM] | TGI (MALME-3M melanoma) [µM] | TGI (MCF7 breast) [µM] | TGI (NCI-H226 lung) [µM] | TGI (OVCAR-5 ovarian) [µM] | TGI (RPMI-8226 leukemia) [µM] | TGI (SF-268 CNS) [µM] | TGI (SK-MEL-2 melanoma) [µM] | TGI (SK-MEL-28 melanoma) [µM] | TGI (SNB-19 CNS) [µM] | TGI (TK-10 renal) [µM] | TGI (U251 CNS) [µM] | TGI (UACC-257 melanoma) [µM] | TGI (UO-31 renal) [µM] | TGI (OVCAR-4 ovarian) [µM]
1 | COc1ccc(C2c3cc4c(cc3OC(Nc3ccccc3)C2C)OCO4)cc1 (stereo unspecified) | > 100 | > 100 | > 100 | > 100 | > 100 | > 100 | > 100 | > 100 | > 100 | > 100 | > 100 | > 100 | > 100 | > 100 | > 100 | > 100 | > 100 | > 100 | > 100 | 
2 | CN(C)CCCNC(=O)N/N=C/c1ccccc1 | > 100 |  | > 100 |  | > 100 | > 100 | > 100 |  | > 100 |  |  | > 100 | > 100 | > 100 | > 100 | > 100 | > 100 | > 100 | > 100 | 
3 | CCOC(=O)c1csc(NC(=O)CCN2CCN(C)CC2)n1 | > 100 | > 100 | > 100 | > 100 |  | > 100 |  | > 100 | > 100 | > 100 | > 100 |  | > 100 | > 100 | > 100 | > 100 | > 100 | > 100 | > 100 | > 100
4 | CCOC(=O)c1csc(NC(=O)CCN2CCCC2)n1 | > 100 | > 100 | > 100 | > 100 | > 100 | > 100 |  | > 100 | > 100 | > 100 | > 100 |  | > 100 | > 100 | > 100 | > 100 | > 100 | > 100 | > 100 | > 100
5 | OC(CC(O)(C(F)(F)Cl)C(F)(F)Cl)c1ccccc1 (stereo unspecified) | > 10 | > 10 | > 10 | > 10 | 0.0883 | > 10 | > 10 | > 10 | > 10 | > 10 | > 10 | > 10 | > 10 | > 10 | > 10 | > 10 | > 10 | > 10 |  | > 10
6 | O=C(C(=C(I)I)c1ccccc1)c1ccccc1 | > 100 |  | > 100 | 37.7 | 44.4 |  | 46.8 | > 100 |  | > 100 | 45.5 | > 100 | 38 | 94.7 | > 100 | 83.7 |  | > 100 | 58.8 | > 100
7 | COc1cc(N=Nc2ccc(OC)c(S(=O)(=O)O)c2)c(C)cc1N=Nc1ccc(/C=C/c2ccc(N=[N+]([O-])c3ccc(/C=C/c4ccc(N=Nc5cc(C)c(N=Nc6ccc(OC)c(S(=O)(=O)O)c6)cc5OC)cc4S(=O)(=O)O)c(S(=O)(=O)O)c3)cc2S(=O)(=O)O)c(S(=O)(=O)O)c1 | > 100 | > 100 | > 100 | > 100 | > 100 | > 100 | > 100 | > 100 | > 100 | > 100 | > 100 | > 100 | > 100 | > 100 | > 100 |  | > 100 | > 100 | > 100 | > 100
8 | CCCn1cc2c3c(cccc31)C1C=C(C)CN(C)C1C2 (stereo unspecified) | 70.5 | 38 | 49 | 67.2 | 60.4 | 58 | 55.5 | 37.8 | 40.9 | 57 | 25.1 | 47.2 | 63.4 | 49.9 | 62.1 |  | 52 | 29.6 | 38.8 | 29.8
